According to patent US7541353B2, “Compounds for the treatment of hepatitis C” (Bristol-Myers Squibb Company, priority 2007, dated 2009):
Read-outs that look alike come from different tables or passages of the source.

Experiments:
HCV replicon cells = test: HCV replicon FRET assay; type: cell-based
Protocol: FRET Assay Preparation. The HCV FRET screening assay was performed in 96-well cell culture plates. The FRET peptide (Anaspec, Inc.) (Taliani et al., Anal. Biochem. 1996, 240, 60-67) contains a fluorescence donor, EDANS, near one end of the peptide and an acceptor, DABCYL, near the other end. The fluorescence of the peptide is quenched by […] resonance energy transfer (RET) between the donor and the acceptor, but as the NS3 protease cleaves the peptide the products are released from RET quenching and the fluorescence of the donor becomes apparent. The assay reagent was made as follows: 5× cell Luciferase cell culture lysis reagent from Promega (#E153A) diluted to 1× with dH2O, NaCl added to 150 mM final, the FRET peptide diluted to 20 μM final from a 2 mM stock.
To prepare plates, HCV replicon cells, with or without a Renilla luciferase reporter gene, were trypsinized and plated in a 96-well plate with titrated test compounds added in columns 3 through 12; columns 1 and 2 contained a control compound (HCV control inhibitor), and the bottom row contained cells with DMSO only. The plates were then placed in a CO2 incubator at 37° C.
Assays. Subsequent to addition of the test compounds described above (FRET Assay Preparation), at various times the plate was removed and Alamar blue solution (Trek Diagnostics, #00-100) was added to measure cellular toxicity. After reading in a Cytoflour 4000 instrument (PE Biosystems), plates were rinsed with PBS and then used for FRET assay by the addition of 30 ul of the FRET peptide assay reagent described above (FRET Assay Preparation) per well. The plate was then placed into the Cytoflour 4000 instrument which had been set to 340 excite/490 emission, automatic mode for up to 20 cycles and the plate read in a kinetic mode. Typically, the signal to noise using an endpoint analysis after the reads was at least three-fold. Alternatively, after Alamar blue reading, plates were rinsed with PBS, then used for luciferase assay using the Promega Dual-Glo Luciferase Assay System or the Promega EnduRen Live Cell Substrate assay.
Compound analysis was performed by quantification of the relative HCV replicon inhibition and the relative cytotoxicity values. To calculate cytoxicity values, the average Alamar Blue fluorescence signals from the control wells were set as 100% non-toxic. The individual signals in each of the compound test wells were then divided by the average control signal and multiplied by 100% to determine […]. To calculate the HCV replicon inhibition values, an average background value was obtained from the two wells containing the highest amount of HCV control inhibitor at the end of the assay period. These numbers were similar to those obtained from naïve Huh-7 cells. The background numbers were then subtracted from the average signal obtained from the control wells and this number was used as 100% activity. The individual signals in each of the compound test wells were then divided by the averaged control values after background subtraction and multiplied by 100% to determine percent activity. EC50 values were calculated as the concentration which caused a 50% reduction in FRET or luciferase activity. The two numbers generated for the compound plate, percent cytoxicity and percent activity, were used to determine compounds of interest for further analysis.

HCV NS5B = target: T1, HCV NS5B (Hepatitis C virus genotype 1b, UniProt Q9WMX2); test: Modified HCV NS5B RdRp enzyme assay (preincubation protocol); type: biochemical
T1 construct: The cDNA encoding the NS5B protein of HCV, genotype 1b; made in house; host or cells: E. coli BL21(DE3)
Protocol: HCV NS5B RdRp cloning, expression, and purification. The cDNA encoding the NS5B protein of HCV, genotype 1b, was cloned into the pET21a expression vector. The protein was expressed with an 18 amino acid C-terminal truncation to enhance the solubility. The E. coli competent cell line BL21(DE3) was used for expression of the protein. Cultures were grown at 37° C. for ˜4 hours until the cultures reached an optical density of 2.0 at 600 nm. The cultures were cooled to 20° C. and induced with 1 mM IPTG. Fresh ampicillin was added to a final concentration of 50 μg/ml and the cells were grown overnight at 20° C.
Cell pellets (3L) were lysed for purification to yield 15-24 mgs of purified NS5B. The lysis buffer consisted of 20 mM Tris-HCl, pH 7.4, 500 mM NaCl, 0.5% triton X-100, 1 mM DTT, 1 mM EDTA, 20% glycerol, 0.5 mg/ml lysozyme, 10 mM MgCl2, 15 ug/ml deoxyribonuclease I, and Complete™ protease inhibitor tablets (Roche). After addition of the lysis buffer, frozen cell pellets were resuspended using a tissue homogenizer. To reduce the viscosity of the sample, aliquots of the lysate were sonicated on ice using a microtip attached to a Branson sonicator. The sonicated lysate was centrifuged at 100,000×g for 1 hr at 4° C. and filtered through a 0.2 μm filter unit (Corning).
The protein was purified using two sequential chromatography steps: Heparin sepharose CL-6B and polyU sepharose 4B (Pharmacia). The chromatography buffers were identical to the lysis buffer but contained no lysozyme, deoxyribonuclease I, MgCl2 or protease inhibitor and the NaCl concentration of the buffer was adjusted according to the requirements for charging the protein onto the column. Each column was eluted with a NaCl gradient which varied in length from 5-50 column volumes depending on the column type. After the final chromatography step, the resulting purity of the enzyme is >90% based on SDS-PAGE analysis. The enzyme was aliquoted and stored at −80° C.
Standard HCV NS5B RdRp enzyme assay. HCV RdRp genotype 1b assays were run in a final volume of 60 μl in 96 well plates (Corning 3600). The assay buffer is composed of 20 mM Hepes, pH 7.5, 2.5 mM KCl, 2.5 mM MgCl2, 1 mM DTT, 1.6 U RNAse inhibitor (Promega N2515), 0.01 mg/ml BSA (Sigma B6917), and 2% glycerol. All compounds were serially diluted (3-fold) in DMSO and diluted further in water such that the final concentration of DMSO in the assay was 2%. HCV RdRp genotype 1b enzyme was used at a final concentration of 28 nM. A polyA template was used at 6 nM, and a biotinylated oligo-dT12 primer was used at 180 nM final concentration. Template was obtained commercially (Amersham 27-4110). Biotinylated primer was prepared by Sigma Genosys. 3H-UTP was used at 0.6 μCi (0.29 μM total UTP). Reactions were initiated by the addition of enzyme, incubated at 30° C. for 60 min, and stopped by adding 25 μl of 50 mM EDTA containing SPA beads (4 μg/μl, Amersham RPNQ 0007). Plates were read on a Packard Top Count NXT after >1 hr incubation at room temperature.
Modified HCV NS5B RdRp enzyme assay. A modified enzyme assay was performed essentially as described for the standard enzyme assay except for the following: The biotinylated oligo dT12 primer was precaptured on streptavidin-coated SPA beads by mixing primer and beads in assay buffer and incubating at room temperature for one hour. Unbound primer was removed after centrifugation. The primer-bound beads were resuspended in 20 mM Hepes buffer, pH 7.5 and used in the assay at final concentrations of 20 nM primer and 0.67 μg/μl beads. Order of addition in the assay: enzyme (1.75 nM) was added to diluted compound followed by the addition of a mixture of template (0.36 nM), 3H-UTP (0.6 μCi, 0.29 μM), and primer-bound beads, to initiate the reaction; concentrations given are final. Reactions were allowed to proceed for 4 hours at 30° C.
IC50 values for compounds were determined using seven different [I]. […]

[1] = preincubation protocol, read-out: IC50

T1 sequence (Q9WMX2 2420-2992): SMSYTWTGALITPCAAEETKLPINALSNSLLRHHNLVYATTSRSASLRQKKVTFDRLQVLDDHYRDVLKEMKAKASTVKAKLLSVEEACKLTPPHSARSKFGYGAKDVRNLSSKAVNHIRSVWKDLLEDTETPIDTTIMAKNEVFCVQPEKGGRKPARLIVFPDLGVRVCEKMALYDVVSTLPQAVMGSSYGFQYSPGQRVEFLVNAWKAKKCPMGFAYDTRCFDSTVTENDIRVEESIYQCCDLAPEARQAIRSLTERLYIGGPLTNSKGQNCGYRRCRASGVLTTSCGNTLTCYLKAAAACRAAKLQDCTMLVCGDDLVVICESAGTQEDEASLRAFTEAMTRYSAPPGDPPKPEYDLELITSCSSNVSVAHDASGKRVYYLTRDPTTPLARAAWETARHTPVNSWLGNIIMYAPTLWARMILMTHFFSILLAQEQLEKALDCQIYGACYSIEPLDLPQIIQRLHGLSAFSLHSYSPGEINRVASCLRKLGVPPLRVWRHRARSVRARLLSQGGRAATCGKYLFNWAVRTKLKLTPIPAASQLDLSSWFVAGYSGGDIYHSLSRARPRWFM

SMILES | EC50 (HCV replicon cells; Hepatitis C virus) | IC50 (HCV NS5B) | further results
COc1ccc2c(c1)C1CC1(C(=O)C1C3CCC1CC3)Cn1c-2c(C2CCCCC2)c2ccc(C(=O)NS(=O)(=O)N(C)C)cc21 (stereo not drawn) | – | – | EC50 (HCV replicon cells; Hepatitis C virus, FRET assay, read-out: EC50): 4.58 to 500 nM; IC50 (HCV NS5B; [1]): 4.58 to 500 nM
COc1ccc2c(c1)C1CC1(C(=O)N1C3CCC1CC(=O)C3)Cn1c-2c(C2CCCCC2)c2ccc(C(=O)NS(=O)(=O)N(C)C)cc21 (stereo not drawn) | 4.58 to 500 nM | 4.58 to 500 nM | –
COc1ccc2c(c1)C1CC1(C(=O)N1CC3CCC(C1)O3)Cn1c-2c(C2CCCCC2)c2ccc(C(=O)NS(=O)(=O)N(C)C)cc21 (stereo not drawn) | 4.58 to 500 nM | – | IC50 (HCV NS5B; [1]): 4.58 to 500 nM
COc1ccc2c(c1)C1CC1(C(=O)N1C3CCC1CC(N(CCN(C)C)Cc1ccccc1)C3)Cn1c-2c(C2CCCCC2)c2ccc(C(=O)NS(=O)(=O)C3CC3)cc21 (stereo not drawn) | 4.58 to 500 nM | 4.58 to 500 nM | –
COc1ccc2c(c1)C1CC1(C(=O)N1C3CCC1CC(O)(C1CC1)C3)Cn1c-2c(C2CCCCC2)c2ccc(C(=O)NS(=O)(=O)N(C)C)cc21 (stereo not drawn) | 4.58 to 500 nM | 4.58 to 500 nM | –
COc1ccc2c(c1)C1CC1(C(=O)N1C3CCC1CC(NC(C)C)C3)Cn1c-2c(C2CCCCC2)c2ccc(C(=O)NS(=O)(=O)N(C)C)cc21 (stereo not drawn) | 4.58 to 500 nM | 4.58 to 500 nM | –
COc1ccc2c(c1)C1CC1(C(=O)N1C3CCC1CC(=O)C3)Cn1c-2c(C2CCCCC2)c2ccc(C(=O)NS(C)(=O)=O)cc21 (stereo not drawn) | 4.58 to 500 nM | 4.58 to 500 nM | –
COc1ccc2c(c1)C1CC1(C(=O)N1C3CCC1CC(=O)C3)Cn1c-2c(C2CCCCC2)c2ccc(C(=O)NS(=O)(=O)C(C)C)cc21 (stereo not drawn) | 4.58 to 500 nM | 4.58 to 500 nM | –
CCC(C)S(=O)(=O)NC(=O)c1ccc2c(C3CCCCC3)c3n(c2c1)CC1(C(=O)N2C4CCC2CC(N(C)Cc2ccccc2)C4)CC1c1cc(OC)ccc1-3 (stereo not drawn) | 4.58 to 500 nM | 4.58 to 500 nM | –
COc1ccc2c(c1)C1CC1(C(=O)N1C3CCC1CC(NCc1ccccc1)C3)Cn1c-2c(C2CCCCC2)c2ccc(C(=O)NS(=O)(=O)C(C)C)cc21 (stereo not drawn) | 4.58 to 500 nM | 4.58 to 500 nM | –
CCC(C)S(=O)(=O)NC(=O)c1ccc2c(C3CCCCC3)c3n(c2c1)CC1(C(=O)N2C4CCC2CC(NC)C4)CC1c1cc(OC)ccc1-3 (stereo not drawn) | 4.58 to 500 nM | 4.58 to 500 nM | –
COc1ccc2c(c1)C=C(C(=O)N1C3CCCC1COC3)Cn1c-2c(C2CCCCC2)c2ccc(C(=O)NS(=O)(=O)C3CC3)cc21 | 4.58 to 500 nM | 4.58 to 500 nM | –
COc1ccc2c(c1)C1CC1(C(=O)N1C3CCC1CC(O)(C(F)(F)F)C3)Cn1c-2c(C2CCCCC2)c2ccc(C(=O)NS(=O)(=O)N(C)C)cc21 (stereo not drawn) | 4.58 to 500 nM | 4.58 to 500 nM | –
COc1ccc2c(c1)[C@@H]1C[C@]1(C(=O)N1C3COCC1COC3)Cn1c-2c(C2CCCCC2)c2ccc(C(=O)NS(=O)(=O)N(C)C)cc21 | 4.58 to 500 nM | 4.58 to 500 nM | –
COc1ccc2c(c1)[C@@H]1C[C@]1(C(=O)N1C3CCC(O)C1CCC3O)Cn1c-2c(C2CCCCC2)c2ccc(C(=O)NS(=O)(=O)N(C)C)cc21 (stereo partly drawn) | 4.58 to 500 nM | 4.58 to 500 nM | –
COc1ccc2c(c1)C1CC1(C(=O)N1C3COCC1COC3)Cn1c-2c(C2CCCCC2)c2ccc(C(=O)NS(=O)(=O)C(C)C)cc21 (stereo not drawn) | 4.58 to 500 nM | 4.58 to 500 nM | –
CCC(C)S(=O)(=O)NC(=O)c1ccc2c(C3CCCCC3)c3n(c2c1)CC1(C(=O)N2C4CCC[C@@H]2COC4)CC1c1cc(OC)ccc1-3 (stereo partly drawn) | 4.58 to 500 nM | 4.58 to 500 nM | –
COc1ccc2c(c1)C1CC1(C(=O)N1C3COCC1COC3)Cn1c-2c(C2CCCCC2)c2ccc(C(=O)NS(=O)(=O)CC(C)C)cc21 (stereo not drawn) | 4.58 to 500 nM | 4.58 to 500 nM | –
COc1ccc2c(c1)C1CC1(C(=O)N1C3CCC[C@@H]1COC3)Cn1c-2c(C2CCCCC2)c2ccc(C(=O)NS(=O)(=O)CC(C)C)cc21 (stereo partly drawn) | 4.58 to 500 nM | 4.58 to 500 nM | –
COc1ccc2c(c1)C1CC1(C(=O)N1C3CCC1CC(NCC1CC1)C3)Cn1c-2c(C2CCCCC2)c2ccc(C(=O)NS(=O)(=O)N(C)C)cc21 (stereo not drawn) [drawing 23] | 4.58 to 500 nM | 4.58 to 500 nM | –
COc1ccc2c(c1)C1CC1(C(=O)N1C3CCC1CC(NCC1CC1)C3)Cn1c-2c(C2CCCCC2)c2ccc(C(=O)NS(=O)(=O)N(C)C)cc21 (stereo not drawn) [drawing 26] | – | – | EC50 (HCV replicon cells; FRET assay): 4.58 to 500 nM; IC50 (HCV NS5B; preincubation protocol): 4.58 to 500 nM
CNC1CC2CCC(C1)N2C(=O)C12CC1c1cc(OC)ccc1-c1c(C3CCCCC3)c3ccc(C(=O)NS(=O)(=O)N(C)C)cc3n1C2 (stereo not drawn) [drawing 28] | 4.58 to 500 nM | 4.58 to 500 nM | –
CNC1CC2CCC(C1)N2C(=O)C12CC1c1cc(OC)ccc1-c1c(C3CCCCC3)c3ccc(C(=O)NS(=O)(=O)N(C)C)cc3n1C2 (stereo not drawn) [drawing 29] | – | – | EC50 (HCV replicon cells; FRET assay): 4.58 to 500 nM; IC50 (HCV NS5B; preincubation protocol): 4.58 to 500 nM
COc1ccc2c(c1)C1CC1(C(=O)N1C3CCC1CC(N(C)Cc1ccccc1)C3)Cn1c-2c(C2CCCCC2)c2ccc(C(=O)NS(=O)(=O)C(C)C)cc21 (stereo not drawn) [drawing 36] | 4.58 to 500 nM | 4.58 to 500 nM | –
COc1ccc2c(c1)[C@@H]1C[C@]1(C(=O)N1C3CCC1CC(C)(O)C3)Cn1c-2c(C2CCCCC2)c2ccc(C(=O)NS(=O)(=O)N(C)C)cc21 (stereo partly drawn) [drawing 46] | 4.58 to 500 nM | 4.58 to 500 nM | –
COc1ccc2c(c1)[C@@H]1C[C@]1(C(=O)N1C3CCC1CC(C)(O)C3)Cn1c-2c(C2CCCCC2)c2ccc(C(=O)NS(=O)(=O)N(C)C)cc21 (stereo partly drawn) [drawing 47] | – | – | EC50 (HCV replicon cells; FRET assay): 4.58 to 500 nM; IC50 (HCV NS5B; preincubation protocol): 4.58 to 500 nM
COc1ccc2c(c1)C1CC1(C(=O)N1C3CCCC1COC3)Cn1c-2c(C2CCCCC2)c2ccc(C(=O)NS(=O)(=O)C3CCCCC3)cc21 (stereo not drawn) [drawing 54] | – | – | EC50 (HCV replicon cells; FRET assay): 4.58 to 500 nM; IC50 (HCV NS5B; preincubation protocol): 4.58 to 500 nM
